As usually defined, the IC50 is the midpoint of a concentration-inhibition curve. What is called inhibition is the relative decrease from the control value, in per cent. A higher inhibition goes with a strong effect. A word on the MIC: it is the lowest concentration that inhibits growth of the organism. Read a high MIC as a less susceptible organism.

Several values for one entry are separate records, joined by “and”; a condition that tells them apart may be missing. Identical values can stand only once.

Consider 27 molecules from ChEMBL document CHEMBL1136060, “A new class of type I protein geranylgeranyltransferase (GGTase I) inhibitor” (Bioorg Med Chem Lett, 2002).

Test [1] has as its target Geranylgeranyl transferase type I (Candida albicans). Kind of test: Inhibition of Candida geranylgeranyl transferase I […].
For test [2], the system named is Geranylgeranyl transferase type I (Candida albicans). Kind of test: Tested for the inhibition of Candida GGTase I in Candida albicans at concentration of 3 uM.
The target of test [3] is Geranylgeranyl transferase type I (Candida albicans). Kind of test: Tested for the inhibition of Candida GGTase I in Candida albicans.
For test [4], the target named is T1, Geranylgeranyl transferase type I (Homo sapiens, UniProt P49354+P53609). Kind of test: Tested for the selectivity against human geranylgeranyl transferase I. The test is classed as protein-complex assay.
Test [5] deals with Candida albicans. Kind of test: Antifungal activity against Candida albicans. The class given is functional.
Test [6] concerns the target Protein farnesyltransferase (Homo sapiens, UniProt P49354+P49356). Kind of test: Inhibition of human farnesyl transferase. The test is classed as protein-complex assay.
Test [7] concerns the target T1, Geranylgeranyl transferase type I. Kind of test: Inhibition of human geranylgeranyl transferase I. The test is classed as protein-complex assay.
Test [8] addresses Geranylgeranyl transferase type I (Candida albicans). Kind of test: Inhibition of Candida geranylgeranyl transferase I.

As to `O=C(OCCS)c1csc(C2COc3ccccc3O2)n1` (configuration not stated), the IC50 in test [1] was 1.3 µM.

In test [2], `O=C(NC(C(=O)OCCCS)c1cccc2ccccc12)C1COc2ccccc2O1` (configuration not stated) gave an inhibition of 89%.

In test [2], `CC(O)C(NC(=O)C1Cc2ccccc2C1)C(=O)OCCCS` (configuration not stated) registered an inhibition of under 10%.

In turn, `O=C(OCCCS)C(Cc1ccccc1)NC(=O)C1COc2ccccc2O1` (configuration not stated) had an inhibition in test [2] of 55%.

The molecule `O=C(NC(CC1CCCCC1)C(=O)OCCCS)C1Cc2ccccc2C1` (configuration not stated) returned an inhibition in test [2] of under 10%.

As for `O=C(NC(Cc1ccc2ccccc2c1)C(=O)OCCCS)C1Cc2ccccc2C1` (configuration not stated), the inhibition in test [2] was 36%.

For `O=C(OCCCS)C(Cc1c[nH]c2ccccc12)NC(=O)C1COc2ccccc2O1` (configuration not stated), the inhibition in test [2] was determined as 72%.

Consider `O=C(CNC(=O)C1COc2ccccc2O1)OCCCS` (configuration not stated), for which the inhibition in test [2] is under 10%.

In test [2], `O=C(NC(C(=O)OCCCS)c1cccc2ccccc12)C1Cc2ccccc2C1` (configuration not stated) displayed an inhibition of 90%.

`O=C(N[C@H](Cc1cccc2ccccc12)C(=O)OCCCS)C1Cc2ccccc2C1`: it took 0.0073 µM to reach half-maximal inhibition in test [3] (IC50).

Take `O=C(N[C@H](Cc1ccc(Cl)c(Cl)c1)C(=O)NCCc1c[nH]cn1)C1c2ccccc2Oc2ccccc21`: in test [4], the Selectivity was over 1000. Further, the IC50 in test [3] came to 0.01 µM.

Turning to `O=C(O)CCC(NC(=O)C1COc2ccccc2O1)C(=O)OCCCS` (configuration not stated), the inhibition in test [2] is under 10%.

In test [2], `O=C(OCCCS)C(CC1CCCCC1)NC(=O)C1COc2ccccc2O1` (configuration not stated) came in with an inhibition of under 10%.

Turning to `O=C(OCCCS)c1csc(C2COc3ccccc3O2)n1` (configuration not stated), the IC50 in test [1] amounted to 0.24 µM.

In turn, `O=C(OCC(O)CS)c1csc(C2COc3ccccc3O2)n1` (configuration not stated) yielded an IC50 in test [3] of 0.031 µM.

`O=C(NC(Cc1ccccc1)C(=O)OCCCS)C1Cc2ccccc2C1` (configuration not stated): the inhibition in test [2] is 63%.

Turning to `CC(O)C(NC(=O)C1COc2ccccc2O1)C(=O)OCCCS` (configuration not stated), in test [2], the inhibition is under 10%.

`O=C(CNC(=O)C1Cc2ccccc2C1)OCCCS`: in test [2], the inhibition is under 10%.

Take `O=C(OC(CS)C(O)CS)c1csc(C2COc3ccccc3O2)n1` (configuration not stated): the minimal inhibitory concentration (MIC) in test [5] is over 120 µg/mL. The IC50 in test [6] is over 1000 µM; in test [7], 40 µM; in test [8] it was 0.017 µM; in test [1], 0.017 µM.

As for `O=C(OCCCS)C(Cc1ccc2ccccc2c1)NC(=O)C1COc2ccccc2O1` (configuration not stated), the inhibition in test [2] worked out at 25%.

In turn, `NC(=O)[C@@H](Cc1c[nH]cn1)NC(=O)[C@@H](Cc1cccc2ccccc12)NC(=O)C1Cc2ccccc2C1` gave an inhibition in test [2] of 48%.

For `NC(=O)[C@@H](Cc1c[nH]cn1)NC(=O)[C@@H](Cc1cccc2ccccc12)NC(=O)C1c2ccccc2Oc2ccccc21`, the inhibition in test [2] is 97%.

For the molecule `O=C(O)CCC(NC(=O)C1Cc2ccccc2C1)C(=O)OCCCS` (configuration not stated), in test [2], the inhibition was under 10%.

`O=C(NCCCS)c1csc(C2COc3ccccc3O2)n1` (configuration not stated) came in with an IC50 in test [3] of 0.78 µM.

`O=C(N[C@H](Cc1cccc2ccccc12)C(=O)NCCc1cnc[nH]1)C1Cc2ccccc2C1` showed a half-maximal inhibitory concentration (IC50) in test [3] of 0.35 µM.

As to `O=C(NC(Cc1c[nH]c2ccccc12)C(=O)OCCCS)C1Cc2ccccc2C1` (configuration not stated), in test [2], the inhibition came out at 72%.

Turning to `NC(=O)[C@@H](Cc1c[nH]cn1)NC(=O)[C@@H](Cc1cccc2ccccc12)NC(=O)C1c2ccccc2-c2ccccc21`, the inhibition in test [2] is 71% and 96%.
